Experimental findings from patent US20230150974A1 (Foghorn Therapeutics Inc., priority 2020, published 2023) are described below.

One assay deals with T1, HiBiT-BRM (Homo sapiens, UniProt P51531).
T1 construct: expressed in transfected cells
The assay can be described thus: HiBiT-BRM cell-based degradation assay (Nano-Glo HiBiT Lytic Detection). The conditions noted are these: HeLa cells expressing HiBiT-BRM, 24 h; for DC50: read-out: BRM HiBit Degradation IC50. In outline:
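Luminescence from HiBiT–LgBiT complementation in lysates of a stable HiBiT-BRM HeLa line measured after 24 h compound exposure. Degradation expressed as percent relative to DMSO-treated cells and cells given 2 μM of a known BRM/BRG1 degrader.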

In a further assay the target is T2, HiBit-BRG1 (Homo sapiens, UniProt P51532).
T2 construct: expressed in transfected cells
Briefly: HiBit-BRG1 cell-based degradation assay (Nano-Glo HiBiT Lytic Detection). The conditions noted are these: HeLa cells expressing HiBit-BRG1 and LgBit, 24 h; for DC50: read-out: BRG1 HiBit Degradation IC50; for Dmax: read-out: BRG1 HiBit Degradation Maximum (%). In outline:
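Luminescence from Nano-Glo HiBiT lytic detection, read after 24 h compound exposure, scored degradation in a stable HeLa HiBiT-BRG1/LgBit line seeded at 5000 cells/well. DMSO wells defined 0% and 2 μM known BRM/BRG1 degrader wells defined full degradation.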

Structures are written as SMILES. A value given as a limit tells only on which side of the number the result lay.

T1 sequence (P51531 whole entry): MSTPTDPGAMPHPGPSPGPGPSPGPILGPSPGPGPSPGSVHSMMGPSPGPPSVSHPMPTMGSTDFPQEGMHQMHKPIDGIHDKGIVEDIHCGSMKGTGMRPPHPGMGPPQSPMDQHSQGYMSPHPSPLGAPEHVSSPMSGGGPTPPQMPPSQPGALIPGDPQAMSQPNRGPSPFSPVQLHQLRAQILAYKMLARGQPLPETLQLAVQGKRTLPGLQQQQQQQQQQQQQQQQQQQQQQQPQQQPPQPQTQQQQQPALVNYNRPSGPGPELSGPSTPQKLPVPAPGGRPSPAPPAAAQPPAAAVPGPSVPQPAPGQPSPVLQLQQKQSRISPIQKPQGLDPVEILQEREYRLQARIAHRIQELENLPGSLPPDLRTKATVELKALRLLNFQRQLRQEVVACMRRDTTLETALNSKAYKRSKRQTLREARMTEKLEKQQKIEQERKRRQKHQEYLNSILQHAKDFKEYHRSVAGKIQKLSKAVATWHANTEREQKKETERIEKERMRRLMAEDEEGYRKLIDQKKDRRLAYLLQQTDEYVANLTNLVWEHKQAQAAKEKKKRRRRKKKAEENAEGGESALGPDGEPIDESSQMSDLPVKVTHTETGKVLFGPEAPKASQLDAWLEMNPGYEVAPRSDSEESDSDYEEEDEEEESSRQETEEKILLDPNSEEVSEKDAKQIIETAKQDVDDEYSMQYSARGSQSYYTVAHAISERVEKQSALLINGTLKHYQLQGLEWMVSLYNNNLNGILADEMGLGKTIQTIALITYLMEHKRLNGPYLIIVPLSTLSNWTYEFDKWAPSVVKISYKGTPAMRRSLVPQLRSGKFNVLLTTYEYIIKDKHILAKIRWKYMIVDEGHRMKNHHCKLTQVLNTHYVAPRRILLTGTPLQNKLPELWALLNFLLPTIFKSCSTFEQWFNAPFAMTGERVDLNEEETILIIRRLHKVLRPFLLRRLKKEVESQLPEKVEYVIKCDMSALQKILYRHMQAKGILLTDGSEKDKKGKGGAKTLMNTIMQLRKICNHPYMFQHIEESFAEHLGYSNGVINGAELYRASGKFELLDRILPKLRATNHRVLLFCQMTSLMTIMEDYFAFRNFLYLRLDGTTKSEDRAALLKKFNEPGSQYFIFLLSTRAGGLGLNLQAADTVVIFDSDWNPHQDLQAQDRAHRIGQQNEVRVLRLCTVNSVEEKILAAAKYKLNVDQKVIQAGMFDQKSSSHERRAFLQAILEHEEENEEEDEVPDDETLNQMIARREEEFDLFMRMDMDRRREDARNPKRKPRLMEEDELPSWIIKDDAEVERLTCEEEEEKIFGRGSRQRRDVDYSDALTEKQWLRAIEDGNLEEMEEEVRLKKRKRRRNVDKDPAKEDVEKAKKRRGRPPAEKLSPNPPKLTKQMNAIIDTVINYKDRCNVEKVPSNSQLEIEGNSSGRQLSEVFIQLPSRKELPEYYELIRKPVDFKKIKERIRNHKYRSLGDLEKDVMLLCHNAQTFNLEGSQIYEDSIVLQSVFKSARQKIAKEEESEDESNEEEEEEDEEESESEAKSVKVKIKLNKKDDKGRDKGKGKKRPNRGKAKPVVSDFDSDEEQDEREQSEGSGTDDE
T2 sequence (P51532 whole entry): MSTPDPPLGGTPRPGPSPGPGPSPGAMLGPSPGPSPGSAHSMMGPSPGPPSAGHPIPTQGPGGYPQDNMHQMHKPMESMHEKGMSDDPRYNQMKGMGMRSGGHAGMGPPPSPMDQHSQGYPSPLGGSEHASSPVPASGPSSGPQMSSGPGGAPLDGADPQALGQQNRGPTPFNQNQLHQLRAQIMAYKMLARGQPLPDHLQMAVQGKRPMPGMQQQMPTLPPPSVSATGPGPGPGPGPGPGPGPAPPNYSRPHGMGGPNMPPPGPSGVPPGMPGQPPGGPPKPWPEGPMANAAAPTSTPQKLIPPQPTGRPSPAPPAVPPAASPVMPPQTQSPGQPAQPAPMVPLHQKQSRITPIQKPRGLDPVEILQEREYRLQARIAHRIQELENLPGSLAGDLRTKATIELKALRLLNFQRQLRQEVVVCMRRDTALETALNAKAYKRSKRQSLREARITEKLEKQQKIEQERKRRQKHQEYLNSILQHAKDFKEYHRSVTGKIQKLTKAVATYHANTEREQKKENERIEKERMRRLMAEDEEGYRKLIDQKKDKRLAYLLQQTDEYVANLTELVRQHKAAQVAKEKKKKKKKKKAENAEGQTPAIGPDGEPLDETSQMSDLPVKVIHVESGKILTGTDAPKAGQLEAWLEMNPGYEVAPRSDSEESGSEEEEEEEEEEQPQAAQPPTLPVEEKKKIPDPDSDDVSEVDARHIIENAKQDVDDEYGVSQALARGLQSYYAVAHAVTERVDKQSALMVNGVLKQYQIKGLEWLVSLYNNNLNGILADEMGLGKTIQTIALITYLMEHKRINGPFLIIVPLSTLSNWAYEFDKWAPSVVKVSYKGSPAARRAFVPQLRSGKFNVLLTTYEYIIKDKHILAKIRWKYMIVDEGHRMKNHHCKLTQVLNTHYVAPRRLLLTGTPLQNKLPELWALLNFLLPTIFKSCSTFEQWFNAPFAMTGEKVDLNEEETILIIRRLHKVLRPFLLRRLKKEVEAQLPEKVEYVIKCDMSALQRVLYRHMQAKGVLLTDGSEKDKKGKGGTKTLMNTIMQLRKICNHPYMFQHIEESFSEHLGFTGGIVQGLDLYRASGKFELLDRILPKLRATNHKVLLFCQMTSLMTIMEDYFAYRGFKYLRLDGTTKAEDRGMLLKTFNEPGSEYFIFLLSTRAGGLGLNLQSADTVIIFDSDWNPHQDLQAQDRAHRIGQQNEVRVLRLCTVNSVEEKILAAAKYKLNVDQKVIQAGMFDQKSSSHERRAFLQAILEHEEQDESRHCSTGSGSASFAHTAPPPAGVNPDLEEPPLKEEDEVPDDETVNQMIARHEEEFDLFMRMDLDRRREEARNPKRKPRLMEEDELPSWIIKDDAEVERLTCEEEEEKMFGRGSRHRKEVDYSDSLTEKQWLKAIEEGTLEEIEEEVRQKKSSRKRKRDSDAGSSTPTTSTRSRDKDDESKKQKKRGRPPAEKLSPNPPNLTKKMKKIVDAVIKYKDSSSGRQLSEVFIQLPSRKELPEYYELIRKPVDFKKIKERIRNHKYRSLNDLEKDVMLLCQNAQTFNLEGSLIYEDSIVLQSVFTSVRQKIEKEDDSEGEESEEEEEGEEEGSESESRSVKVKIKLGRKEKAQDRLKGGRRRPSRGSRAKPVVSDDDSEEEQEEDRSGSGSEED

On to `Cc1ncsc1-c1ccc([C@H](C)NC(=O)[C@@H]2C[C@@H](O)CN2C(=O)[C@@H](NC(=O)CN2CCC(OC3CCN(CCC(=O)NCc4ccc(CCOc5cc(-c6ccccc6O)nnc5N)cc4)CC3)CC2)C(C)(C)C)cc1` [Compound 258, (2S,4R)-1-((S)-2-(2-(4-((1-(3-((4-(2-((3-amino-6-(2-hydroxyphenyl)pyridazin-4-yl)oxy)ethyl)benzyl)amino)-3-oxopropyl)piperidin-4-yl)oxy)piperidin-1-yl)acetamido)-3,3-dimethylbutanoyl)-4-hydroxy-N-((S)-1-(4-(4-methylthiazol-5-yl)phenyl)ethyl)pyrrolidine-2-carboxamide], for which, at HiBiT-BRM, the “BRM HiBit Degradation Maximum (%)” value is “A (“A” indicates maximum degradation ≥75%)” and the DC50 is above 100 nM. For the same molecule, on HiBit-BRG1, the DC50 was above 1000 nM and the Dmax is above 50%.
`Nc1nnc(-c2ccccc2O)cc1OCCc1ccc(C(=O)NCCS(=O)(=O)CCNc2cccc3c2C(=O)N(C2CCC(=O)NC2=O)C3=O)cc1` (stereo not shown) [Compound 55, 4-(2-[[3-amino-6-(2-hydroxyphenyl)pyridazin-4-yl]oxy]ethyl)-N-[2-(2-[[2-(2,6-dioxopiperidin-3-yl)-1,3-dioxoisoindol-4-yl]amino]ethanesulfonyl)ethyl]benzamide]: on HiBiT-BRM, the “BRM HiBit Degradation Maximum (%)” value was “C (“C” indicates maximum degradation <50%)” and the DC50 is above 1000 nM. On HiBit-BRG1, the DC50 was above 1000 nM and the Dmax was below 50%.
For the molecule `Nc1nnc(-c2ccccc2O)cc1N1CCN(CC(=O)NCCCCCCCCNc2cccc3c2C(=O)N(C2CCC(=O)NC2=O)C3=O)CC1` (stereo not shown) [Compound 95, 2-(4-(3-amino-6-(2-hydroxyphenyl)pyridazin-4-yl)piperazin-1-yl)-N-(8-((2-(2,6-dioxopiperidin-3-yl)-1,3-dioxoisoindolin-4-yl)amino)octyl)acetamide], at HiBiT-BRM, the “BRM HiBit Degradation Maximum (%)” value is listed as “C (“C” indicates maximum degradation <50%)” and the DC50 is above 1000 nM. Further, at HiBit-BRG1, the DC50 is above 1000 nM and the Dmax is below 50%.
For the molecule `Cc1ncsc1-c1ccc(CNC(=O)[C@@H]2C[C@@H](O)CN2C(=O)[C@@H](NC(=O)CCCCCCCCCNC(=O)c2ccc(CCOc3cc(-c4ccccc4O)nnc3N)cc2)C(C)(C)C)cc1` [Compound 47, (2S,4R)-1-[(2S)-2-(10-[[4-(2-[[3-amino-6-(2-hydroxyphenyl)pyridazin-4-yl]oxy]ethyl)phenyl]formamido]decanamido)-3,3-dimethylbutanoyl]-4-hydroxy-N-[[4-(4-methyl-1,3-thiazol-5-yl)phenyl]methyl]pyrrolidine-2-carboxamide], on HiBiT-BRM, the “BRM HiBit Degradation Maximum (%)” value is given as “B (“B” indicates maximum degradation ≥50%)” and the DC50 is above 100 nM. Also, on HiBit-BRG1, the DC50 was above 1000 nM and the Dmax is below 50%.
As to `Cc1ncsc1-c1ccc(CNC(=O)[C@@H]2C[C@@H](O)CN2C(=O)[C@@H](NC(=O)CCCCCCCCCNC(=O)c2ccc(CCOc3cc(-c4ccccc4O)nnc3N)cc2)C(C)C)cc1` [Compound 170, (2S,4R)-1-((10-(4-(2-((3-amino-6-(2-hydroxyphenyl)pyridazin-4-yl)oxy)ethyl)benzamido)decanoyl)-L-valyl)-4-hydroxy-N-(4-(4-methylthiazol-5-yl)benzyl)pyrrolidine-2-carboxamide], at HiBiT-BRM, the “BRM HiBit Degradation Maximum (%)” value is “C (“C” indicates maximum degradation <50%)” and the DC50 is above 1000 nM. At HiBit-BRG1, the DC50 was above 1000 nM and the Dmax is below 50%.
For `Cc1ncsc1-c1ccc([C@H](C)NC(=O)[C@@H]2C[C@@H](O)CN2C(=O)[C@@H](NC(=O)CCCCCCCCCCCCCCCC(=O)NCc2ccc(CCOc3cc(-c4ccccc4O)nnc3N)cc2)C(C)(C)C)cc1` [Compound 172, N1-(4-(2-((3-amino-6-(2-hydroxyphenyl)pyridazin-4-yl)oxy)ethyl)benzyl)-N17-((S)-1-((2S,4R)-4-hydroxy-2-(((S)-1-(4-(4-methylthiazoi-5-yl)phenyl)ethyl)carbamoyl)pyrrolidin-1-yl)-3,3-dimethyl-1-oxobutan-2-yl)heptadecanediamide], at HiBiT-BRM, the “BRM HiBit Degradation Maximum (%)” value is reported as “A (“A” indicates maximum degradation ≥75%)” and the DC50 was above 10 nM. For the same molecule, at HiBit-BRG1, the DC50 was above 100 nM and the Dmax was above 50%.
For `Nc1nnc(-c2ccccc2O)cc1NCCc1ccc(CNC(=O)CCCCOc2cccc3c2C(=O)N(C2CCC(=O)NC2=O)C3=O)cc1` (stereo not shown) [Compound 147, N-(4-(2-((3-amino-6-(2-hydroxyphenyl)pyridazin-4-yl)amino)ethyl)benzyl)-5-((2-(2,6-dioxopiperidin-3-yl)-1,3-dioxoisoindolin-4-yl)oxy)pentanamide], in that order: “C (“C” indicates maximum degradation <50%)”, above 1000 nM, above 1000 nM and below 50%.
For `Cc1ncsc1-c1ccc([C@H](C)NC(=O)[C@@H]2C[C@@H](O)CN2C(=O)[C@@H](c2cc(OCCNCCCCC(=O)NCc3ccc(CCOc4cc(-c5ccccc5O)nnc4N)cc3)no2)C(C)C)cc1` [Compound 218, (2S,4R)-1-((R)-2-(3-(2-((5-((4-(2-((3-amino-6-(2-hydroxyphenyl)pyridazin-4-yl)oxy)ethyl)benzyl)amino)-5-oxopentyl)amino)ethoxy)isoxazol-5-yl)-3-methylbutanoyl)-4-hydroxy-N-((S)-1-(4-(4-methylthiazol-5-yl)phenyl)ethyl)pyrrolidine-2-carboxamide], in that order: “B (“B” indicates maximum degradation ≥50%)”, above 100 nM, above 1000 nM and below 50%.
For `Cc1ncsc1-c1ccc(CNC(=O)[C@@H]2C[C@@H](O)CN2C(=O)[C@@H](NC(=O)CCN2CC3CN(C(=O)c4ccc(CCOc5cc(-c6ccccc6O)nnc5N)cc4)C3C2)C(C)(C)C)cc1` (stereo partly drawn) [Compound 241, (2S,4R)-1-((2S)-2-(3-(6-(4-(2-((3-amino-6-(2-hydroxyphenyl)pyridazin-4-yl)oxy)ethyl)benzoyl)-3,6-diazabicyclo[3.2.0]heptan-3-yl)propanamido)-3,3-dimethylbutanoyl)-4-hydroxy-N-(4-(4-methylthiazol-5-yl)benzyl)pyrrolidine-2-carboxamide], in that order: “C (“C” indicates maximum degradation <50%)”, above 1000 nM, above 1000 nM and below 50%.
In the case of `Cc1ncsc1-c1ccc(CNC(=O)[C@@H]2C[C@@H](O)CN2C(=O)[C@@H](NC(=O)CCCCC(=O)NCc2ccc(CCOc3cc(-c4ccccc4O)nnc3N)cc2)C(C)(C)C)cc1` [Compound 27, N′-[[4-(2-[[3-amino-6-(2-hydroxyphenyl)pyridazin-4-yl]oxy]ethyl)phenyl]methyl]-N-[(2S)-1-[(2S,4R)-4-hydroxy-2-([[4-(4-methyl-1,3-thiazol-5-yl)phenyl]methyl]carbamoyl)pyrrolidin-1-yl]-3,3-dimethyl-1-oxobutan-2-yl]hexanediamide], at HiBiT-BRM, the “BRM HiBit Degradation Maximum (%)” value is “A (“A” indicates maximum degradation ≥75%)” and the DC50 is above 1000 nM. Also, on HiBit-BRG1, the DC50 was above 1000 nM and the Dmax is below 50%.
